# Where “and” joins values, the source holds several entries; their conditions need not be identical. Equal entries are not always repeated. Where two headings read alike, the source gives them in different places. Square brackets hold non-standard residues; d marks the D form. Ends that are not written are not given here. Peptide text beside a SMILES is read from it. * marks the point of attachment. Trp(2-Pmc) = Cc1c(C)c(S(=O)(=O)c2[nH]c3ccccc3c2C[C@H](N)C(=O)O)c(C)c2c1OC(C)(C)CC2; Bip = N[C@@H](Cc1ccc(-c2ccccc2)cc1)C(=O)O; Fmoc = O=C(OCC1c2ccccc2-c2ccccc21)*; Acm = CC(=O)NC*
# How the values were obtained:
# [1] = tested on: Meth A cells (murine sarcoma cell line); assay: Cytotoxicity on Meth A cells, MTT method
# Procedure: Peptide solutions (0.1 ml) were added and the plates incubated at 37° C. for 30 minutes, 4 hours or 24 hours. The cytotoxicity was measured using the MTT method (Mosmann et al., J. Immunol. (1986) 136, 2348-2357).
# Cells in the growth phase were harvested and washed in fresh medium and injected subcutaneously into the abdominal region of the mice.
# The cytotoxic effect of the peptides on different murine and human tumor cells were measured using the MTT method (Mosmann et al., J. Immunol. (1986) 136, 2348-2357).
# MTT is a soluble tetrazolium salt yielding a yellow solution when prepared in media or salt solutions lacking phenol red. Dissolved MTT is converted to an insoluble purple formazan by cleavage of the tetrazolium ring by dehydrogenase enzymes. This water insoluble formazan can be solubilized using isopropanol or other solvents and the dissolved material is measured spectrophotometrically. The absorbance was measured as a function of concentration of converted dye.
# Cells were maintained in […] medium containing 10% FBS, 1% L-glutamine and 0.1% penicillin and streptomycin. Cells to be used in the assay were grown to confluency, trypsinated and split to single cell suspension, counted and centrifuged at 1500 rpm for 10 min. […][…] of cell suspension was transferred to each well on a 96-well microtiter plate. The cells were stimulated by adding […] of various concentrations of peptides diluted with assay medium to each well. The final concentrations of peptide were for example: 5, 10, 20, 40, 60, 80, 100, and 200 mg/ml. […] As a negative control only medium was added to the cells, and as a positive control (100% killing) 1% triton X-100 was added. Following an incubation period of 4 h., 20 ml MTT dissolved in PBS at a concentration of 5 mg/ml was added to each well, and the plate was incubated further for 2 h. 130 ml of the supernatant were then removed and […] acid alcohol (0.04-0.1 N HCl in isopropanol) added to each well to dissolve the dark blue crystals. The plate was placed on a shaker for 1 h and read spectrophotometrically at 590 nm in a microtiterplate reader using the Softmaxâ program.
# [2] = tested on: MRSA (methicillin resistant S. aureus); type: cell-based
# Procedure: (§1) The bacterial strains used were: Escherichia coli ATCC 25922 and Staphylococcus aureus ATCC 25923. All strains were stored at −70° C. The bacteria were grown in 2% Bacto Peptone water (Difco 1807-17-4). All tests were performed with bacteria in mid-logarithmic growth phase. Determination of the minimum inhibitory concentration (MIC) of the peptides for bacterial strains were performed in 1% Bacto Peptone water. A standard microdilution technique with an inoculum of 2×10^6 CFU/ml was used. All assays were performed in triplets. Since the peptides are positively charged and therefore could adhere to the plastic wells, we controlled the actual concentration of the peptides in the solution by HPLC. There was no difference between the concentration of the peptides before or after adding the solution to the plastic wells.
# Table 15 below gives the antibacterial activity and toxicity data for some preferred peptides of the invention. MRSA is methicillin resistant S. aureus and MRSE is methicilin resistant S. epidermidis.
# [3] = tested on: Escherichia coli ATCC 25922; assay: MIC (minimum inhibitory concentration) test, microdilution; type: cell-based
# Procedure: as §1
# [4] = tested on: Staphylococcus aureus ATCC 25923; assay: as above; type: cell-based
# Procedure: as §1
# human red blood cells = assay: Hemolytic assay; type: cell-based; settings: red cells of human
# Procedure: The hemolytic activities of the peptides were determined using fresh human red blood cells. 8 ml blood was taken from a healthy person. 4 ml blood was transferred to a polycarbonate tube containing heparin to a final concentration of 10 U/ml, and the remaining 4 ml blood was transferred to a glass tube containing EDTA with final concentration of 15% EDTA. The erythrocytes were isolated from heparin-treated blood by centrifugation in 1500 rpm for 10 min and washed three times with phosphate-buffered saline (PBS) to remove plasma and buffy coat. The cell pellet was resuspended in PBS to make the final volume of 4 ml. The peptide was diluted to a concentration of 2 mg/ml and 0.1 mg/ml. The peptide was further diluted to the concentrations as stated in Table 1. For each tube PBS was added first, then RBCs and peptide solutions. The hematocrit in the blood treated with EDTA was determined after 30 min with Sysmex K-1000, and the resuspended RBCs were diluted into 10% hematocrit. RBCs in PBS (1%) with and without peptides (Table 18) were incubated in a shaker at 37° for 1 hour and then centrifuged at 4000 rpm for 5 min. The supernatant were carefully transferred to new polycarbonate tubes and the absorbance of the supernatant was measured at 540 nm. Baseline hemolysis was hemoglobin released in the presence of PBS, and 100% hemolysis was hemoglobin released in the presence of 0.1% Triton X-100.
# [5] = Table 7, in µg/mL (unit assumed)
compound,measurement,setting,value
CSCC[C@H](NC(=O)[C@H](CCCNC(=N)N)NC(=O)[C@H](C)NC(=O)[C@H](CCC(N)=O)NC(=O)[C@H](Cc1c(S(=O)(=O)c2c(C)c(C)c3c(c2C)CCC(C)(C)O3)[nH]c2ccccc12)NC(=O)[C@H](CCCNC(=N)N)NC(=O)[C@H](CCCNC(=N)N)NC(=O)[C@H](CSCNC(C)=O)NC(=O)[C@H](CCCCN)NC(=O)[C@H](Cc1ccccc1)NC(=O)OCC1c2ccccc2-c2ccccc21)C(=O)N[C@@H](CCCCN)C(=O)N[C@@H](CCCCN)C(=O)N[C@@H](CC(C)C)C(=O)NCC(=O)N[C@@H](C)C(=O)O [LFB A8 FMOC PMC] (Fmoc-FKC(Acm)RR[Trp(2-Pmc)]QARMKKLGA-OH),concentration effective in killing Meth A cells,[1]; 4 hours incubation,50 µg/mL
same,concentration effective in killing Meth A cells,[1]; ½ hour incubation,higher than 100 μg/ml
CSCC[C@H](NC(=O)[C@H](CCCNC(=N)N)NC(=O)[C@H](C)NC(=O)[C@H](CCC(N)=O)NC(=O)[C@H](Cc1c[nH]c2ccccc12)NC(=O)[C@H](CCCNC(=N)N)NC(=O)[C@H](CCCNC(=N)N)NC(=O)[C@H](CSCNC(C)=O)NC(=O)[C@H](CCCCN)NC(=O)[C@H](Cc1ccccc1)NC(=O)OCC1c2ccccc2-c2ccccc21)C(=O)N[C@@H](CCCCN)C(=O)N[C@@H](CCCCN)C(=O)N[C@@H](CC(C)C)C(=O)NCC(=O)N[C@@H](C)C(=O)O [LFB A8 FMOC] (Fmoc-FKC(Acm)RRWQARMKKLGA-OH),concentration effective in killing Meth A cells,[1]; 4 hours incubation,250 µg/mL
same,concentration effective in killing Meth A cells,[1]; ½ hour incubation,250 µg/mL
CSCC[C@H](NC(=O)[C@H](CCCNC(=N)N)NC(=O)[C@H](Cc1c[nH]c2ccccc12)NC(=O)[C@H](CCC(N)=O)NC(=O)[C@H](Cc1c[nH]c2ccccc12)NC(=O)[C@H](CCCNC(=N)N)NC(=O)[C@H](CCCNC(=N)N)NC(=O)[C@H](Cc1ccc(-c2ccccc2)cc1)NC(=O)[C@H](CCCCN)NC(=O)[C@@H](N)Cc1ccccc1)C(=O)N[C@@H](CCCCN)C(=O)N[C@@H](CCCCN)C(=O)N[C@@H](CC(C)C)C(=O)NCC(=O)N[C@@H](C)C(=O)O [LFB Bip3] (H-FK[Bip]RRWQWRMKKLGA-OH; N-terminus assumed),MIC MRSA,[2]; Table 15,2.5 µg/mL
"CSCC[C@H](NC(=O)[C@H](CCCNC(=N)N)NC(=O)[C@H](Cc1ccc(-c2ccccc2)cc1)NC(=O)[C@H](CCC(N)=O)NC(=O)[C@H](Cc1ccc(-c2ccccc2)cc1)NC(=O)[C@H](CCCNC(=N)N)NC(=O)[C@H](CCCNC(=N)N)NC(=O)[C@H](CSCNC(C)=O)NC(=O)[C@H](CCCCN)NC(=O)[C@@H](N)Cc1ccccc1)C(=O)N[C@@H](CCCCN)C(=O)N[C@@H](CCCCN)C(=O)N[C@@H](CC(C)C)C(=O)NCC(=O)N[C@@H](C)C(=O)O [LFB Bip6,8]",MIC E. coli,[3]; Table 15,≧5.8 μM
same,MIC S. aureus,[4]; Table 15,3.0 µg/mL
same,MIC MRSA,[2]; Table 15,2.5 µg/mL
CSCC[C@H](NC(=O)[C@H](CCCNC(=N)N)NC(=O)[C@H](Cc1ccc(-c2ccccc2)cc1)NC(=O)[C@H](CCC(N)=O)NC(=O)[C@H](Cc1c(S(=O)(=O)c2c(C)c(C)c3c(c2C)CCC(C)(C)O3)[nH]c2ccccc12)NC(=O)[C@H](CCCNC(=N)N)NC(=O)[C@H](CCCNC(=N)N)NC(=O)[C@H](CSCNC(C)=O)NC(=O)[C@H](CCCCN)NC(=O)[C@@H](N)Cc1ccccc1)C(=O)N[C@@H](CCCCN)C(=O)N[C@@H](CCCCN)C(=O)N[C@@H](CC(C)C)C(=O)NCC(=O)N[C@@H](C)C(=O)O [LFB Bip8 PMC],MIC E. coli,[3]; Table 9,25 µg/mL
same,MIC E. coli,[3]; Table 15,15.0 μg/ml and 6.3 μM
same,MIC S. aureus,[4]; Table 9,5 µg/mL
same,MIC S. aureus,[4]; Table 15,2.5 μg/ml and 1.1 μM
same,MIC MRSA,[2]; Table 15,2.5 µg/mL
"C[C@@H](NC(=O)[C@H](Cc1c[nH]c2ccccc12)NC(=O)[C@H](CCCNC(=N)N)NC(=O)[C@H](Cc1c[nH]c2ccccc12)NC(=O)[C@@H](C)NC(=O)[C@@H](CCCNC(=N)N)NC(=O)[C@H](N)Cc1ccc(O)cc1)C(=O)N[C@@H](Cc1c[nH]c2ccccc12)C(=O)N[C@@H](CCCNC(=N)N)C(=O)N[C@@H](Cc1c[nH]c2ccccc12)C(=O)N[C@@H](CCCNC(=N)N)C(N)=O [SEQ ID NO: 34, tyr-arg-ala-TRP-ARG-TRP-ala-TRP-ARG-TRP-ARG-CONH2] (H-[dY][dR][dA]WRW[dA]WRWR-NH2; N-terminus assumed)",MIC E. coli,"[3]; Table 16, peptides with D-amino acids",7.5 µg/mL
same,MIC S. aureus,[4]; Table 16,5 µg/mL
same,MIC MRSA,[2]; Table 16,2.5 µg/mL
GIGKFLHSAKKFGKAFVGWIMNS [Mag2 W19],MIC E. coli,[3]; ATCC 25922,7.5 µg/mL
same,MIC E. coli,[3]; [5],5-10
same,MIC S. aureus,[4]; ATCC 25923,10 µg/mL
same,MIC S. aureus,[4]; [5],5-10
same,Meth A IC 50,[1]; 4 h,9 µg/mL
"GIGKFWKKARKWGRWFWRILKKG [Tosmag W6,12,15,17]",MIC E. coli,[3]; ATCC 25922,15 µg/mL
same,MIC S. aureus,[4]; ATCC 25923,10 µg/mL
same,Meth A IC 50,[1]; 4 h,23 µg/mL
"GIGKWLKKWRKFWRAWVRIWKKG [Tosmag W5,9,13,16,20]",MIC E. coli,[3]; ATCC 25922,>50 µg/mL
same,MIC S. aureus,[4]; ATCC 25923,>50 µg/mL
same,Meth A IC 50,[1]; 4 h,23 µg/mL
"H-GIGKFLHSAKKFGKAFVGEIMNS-OH [Mag2, reference compound]",MIC E. coli,[3]; [5],20
same,MIC E. coli,[3]; Table 11,20 µg/mL
same,MIC S. aureus,[4]; [5],>200
same,MIC S. aureus,[4]; Table 11,>100 µg/mL
same,Meth A IC 50,"[1]; Table 11, peptide required to kill 50% of Meth A cells",100 µg/mL
"H-GIGKFLKKARKFGRAFVRILKKG-OH [Tosmag, reference compound]",MIC E. coli,[3]; ATCC 25922,8 µg/mL
same,MIC S. aureus,[4]; ATCC 25923,8 µg/mL
same,Meth A IC 50,[1]; 4 h,18 µg/mL
"H-KMASKAGKIAGKIAKVALKAL-NH2 [MSI 24, reference compound]",MIC E. coli,[3]; ATCC 25922,5 µg/mL
same,MIC S. aureus,[4]; ATCC 25923,5 µg/mL
same,Meth A IC 50,[1]; 4 h,>100 µg/mL
"H-KVALKALKVALKALKVALKAL-NH2 [MSI 20, reference compound]",Meth A IC 50,[1]; 4 h,>100 µg/mL
KMASKAGKIAWKIAKVALKAL-NH2 (C-terminus assumed) [MSI 24 W11],MIC E. coli,[3]; ATCC 25922,5 µg/mL
same,MIC S. aureus,[4]; ATCC 25923,2.5 µg/mL
same,Meth A IC 50,[1]; 4 h,24 µg/mL
KMASKAWKIAGKIAKVALKAL-NH2 (C-terminus assumed) [MSI 24 W7],MIC E. coli,[3]; ATCC 25922,5 µg/mL
same,MIC S. aureus,[4]; ATCC 25923,5 µg/mL
same,Meth A IC 50,[1]; 4 h,26 µg/mL
KVALKWLKVALKALKVALKAL-NH2 (C-terminus assumed) [MSI 20 W6],Meth A IC 50,[1]; 4 h,22 µg/mL
"Linear LFB (17-41) modified with Pmc: Linear LFB (17-41) modified with Pmc (FKCRRWQWRMKKLGAPSITCVRRAF; cysteine pairing not given here; also: modified with Pmc group, site not given here; UniProt P24627 36-60, looked up, fragment)",cytotoxic effect on Meth A cells compared with another peptide,[1],slightly more effective than Pmc modified LFB 17-31
"PAWRKARRWAWRMKKLAA-OH [LFB 14-31 A2,6,10,17R4]",MIC E. coli,[3]; ATCC 25922,13.1 µM
same,MIC E. coli,[3]; Table 8,30 µg/mL
same,MIC E. coli,[3]; Table 15,30.0 µg/mL
same,MIC S. aureus,[4]; ATCC 25923,8.8 µM
same,MIC S. aureus,[4]; Table 8,20 µg/mL
same,MIC S. aureus,[4]; Table 15,20.0 µg/mL
same,"EC 50 (toxicity, hemolysis)",human red blood cells,>1000 µg/mL
"YRWWRWARRW-NH2 [LFM 17-26 A7R2,8,9W3,4, 10Y1NH2]",MIC E. coli,[3]; Table 12,10 µg/mL
same,MIC E. coli,[3]; Table 15,10.0 µg/mL
same,MIC S. aureus,[4]; Table 15,1.0 µg/mL
same,MIC MRSA,[2]; Table 15,2.5 µg/mL
